#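 Five compound concentrations were applied to cells in 96-well plates for 48 hours; endpoints were derived by simple linear interpolation of the resulting dose-response curve. The concentration for 50% growth inhibition is given as GI50. TGI marks complete inhibition of growth.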
# Columns and labels:
# Experiment in all cases: growth of human tumour cells (NCI), 48 h
# [1] = test system: HS 578T breast
# [2] = test system: MALME-3M melanoma
# [3] = test system: OVCAR-4 ovarian
# [4] = test system: SK-MEL-5 melanoma
# [5] = test system: RXF 393 renal
# [6] = test system: UACC-257 melanoma
# [7] = test system: SW-620 colon
# [8] = test system: SK-MEL-2 melanoma
# [9] = test system: NCI-H23 lung
# [10] = test system: SF-295 CNS
Structure (SMILES),TGI [1] [µM],TGI [2] [µM],TGI [3] [µM],TGI [4] [µM],TGI [5] [µM],TGI [6] [µM],TGI [7] [µM],TGI [8] [µM],TGI [9] [µM],TGI [10] [µM],GI50 [1] [nM],GI50 [9] [µM],GI50 [2] [µM],GI50 [10] [nM],GI50 [3] [µM],GI50 [4] [nM],GI50 [5] [nM],GI50 [6] [µM],GI50 [7] [µM],GI50 [8] [nM]
C/C(=N\NC(=S)N(C)C)c1nc2ncccc2[nH]1,7.85,6.68,10.6,1.87,> 100,64.5,> 100,> 100,,,,,,,,,,,,
NNC(=O)CCSc1ccccc1,> 100,> 100,> 100,> 100,> 100,> 100,> 100,> 100,> 100,> 100,,,,,,,,,,
CCCn1cc2c(SC)nc(SC)nc2n1,,> 100,> 100,> 100,> 100,> 100,> 100,> 100,> 100,> 100,,,,,,,,,,
COc1ccc(C(O)(c2ccccc2)c2nccc3ccccc23)cc1 (configuration not stated),> 100,7.27,> 100,12.7,44.2,> 100,,,> 100,> 100,,,,,,,,,,
O=C(Nc1ccc(-n2cc(-c3ccncc3)c(-c3ccc(O)c(Cl)c3)n2)cc1)Nc1ccc(Cl)c(C(F)(F)F)c1,13,17.1,29.9,10.7,3.56,30.8,20,4.52,22,14.6,2430,3.56,3.04,2990,3.97,2870,1670,7.42,4.55,1970
c1ccc(C(NC2=NCCO2)c2ccccc2)cc1,> 10,> 10,> 10,> 10,> 10,,> 10,> 10,> 10,> 10,,,,,,,,,,
O=C(O)CCc1nc2ccccc2[nH]1,> 100,> 100,> 100,> 100,> 100,> 100,> 100,> 100,> 100,> 100,,,,,,,,,,
OCCCNc1ncnc2[nH]ncc12,> 100,> 100,> 100,> 100,> 100,> 100,> 100,> 100,> 100,> 100,,,,,,,,,,
CCOC(=O)C(Cc1cn(C(C)=O)c2ccccc12)P(=O)(OCC)OCC (configuration not stated),> 100,,> 100,> 100,,> 100,> 100,> 100,> 100,> 100,,,,,,,,,,
C/C(=N\NC(=S)NCCCCNC(=S)N/N=C(\C)c1ccccn1)c1ccccc1,> 100,> 52.4,> 54.2,,> 23.1,9.64,> 100,97.3,25.3,> 37.6,,,,,,,,,,
Cc1[nH]c(=O)[nH]c(=O)c1/C=C/C(=O)NC(CO)CS(=O)Cc1ccccc1 (configuration not stated),,> 300,,> 300,> 300,> 300,> 300,> 300,> 300,> 300,,,,,,,,,,
CC(C)C(=O)CC(c1ccc(Cl)cc1)N1N=C(C(C)C)CC1c1ccc(Cl)cc1 (configuration not stated),,> 100,,> 100,> 100,49.5,> 100,> 92.2,> 100,> 31.6,,,,,,,,,,

# From PubChem BioAssay (NCI)
